Read-outs that look alike come from different tables or passages of the source.
How the values were obtained:
Test in all cases: SelectScreen Kinase Profiling, single point inhibition and IC50 for off-target kinases
Assay type in all cases: biochemical
off-target kinases [1] = target: off-target kinases (Homo sapiens, UniProt P30291); details: WEE1, LanthaScreen Binding
off-target kinases [2] = target: T1, off-target kinases (Homo sapiens, UniProt O75385); details: ULK1, LanthaScreen Binding
T1 sequence (O75385 1-1050): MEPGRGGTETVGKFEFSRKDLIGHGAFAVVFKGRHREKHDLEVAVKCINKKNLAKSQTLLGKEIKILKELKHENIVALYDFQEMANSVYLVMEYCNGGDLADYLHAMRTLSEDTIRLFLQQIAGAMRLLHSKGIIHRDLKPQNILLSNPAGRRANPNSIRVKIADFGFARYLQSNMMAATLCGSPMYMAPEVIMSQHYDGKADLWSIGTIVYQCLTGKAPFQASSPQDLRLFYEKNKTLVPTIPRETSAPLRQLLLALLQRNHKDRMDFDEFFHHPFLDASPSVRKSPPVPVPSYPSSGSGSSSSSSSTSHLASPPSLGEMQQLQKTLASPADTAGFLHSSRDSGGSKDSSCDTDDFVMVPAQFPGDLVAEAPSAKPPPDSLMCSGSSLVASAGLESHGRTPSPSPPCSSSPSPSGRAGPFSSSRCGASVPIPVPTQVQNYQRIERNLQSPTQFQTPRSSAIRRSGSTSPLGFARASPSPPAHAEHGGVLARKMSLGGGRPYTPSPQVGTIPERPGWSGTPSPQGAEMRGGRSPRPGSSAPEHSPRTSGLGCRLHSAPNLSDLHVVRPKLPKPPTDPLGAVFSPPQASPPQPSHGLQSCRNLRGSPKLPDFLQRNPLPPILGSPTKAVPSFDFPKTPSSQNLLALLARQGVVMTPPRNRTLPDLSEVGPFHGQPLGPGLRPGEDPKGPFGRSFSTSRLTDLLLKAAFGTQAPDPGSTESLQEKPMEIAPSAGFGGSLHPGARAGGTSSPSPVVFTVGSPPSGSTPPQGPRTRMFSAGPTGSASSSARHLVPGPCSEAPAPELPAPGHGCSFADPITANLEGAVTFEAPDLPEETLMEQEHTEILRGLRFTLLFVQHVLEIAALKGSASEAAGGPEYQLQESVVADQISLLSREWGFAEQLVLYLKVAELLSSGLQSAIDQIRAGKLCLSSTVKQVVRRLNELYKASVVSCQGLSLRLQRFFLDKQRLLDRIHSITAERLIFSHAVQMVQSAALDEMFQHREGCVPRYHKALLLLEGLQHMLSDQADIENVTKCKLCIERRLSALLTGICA

off-target kinases [3] = target: T2, off-target kinases (Homo sapiens, UniProt Q9NR20)
T2 sequence (Q9NR20 1-520): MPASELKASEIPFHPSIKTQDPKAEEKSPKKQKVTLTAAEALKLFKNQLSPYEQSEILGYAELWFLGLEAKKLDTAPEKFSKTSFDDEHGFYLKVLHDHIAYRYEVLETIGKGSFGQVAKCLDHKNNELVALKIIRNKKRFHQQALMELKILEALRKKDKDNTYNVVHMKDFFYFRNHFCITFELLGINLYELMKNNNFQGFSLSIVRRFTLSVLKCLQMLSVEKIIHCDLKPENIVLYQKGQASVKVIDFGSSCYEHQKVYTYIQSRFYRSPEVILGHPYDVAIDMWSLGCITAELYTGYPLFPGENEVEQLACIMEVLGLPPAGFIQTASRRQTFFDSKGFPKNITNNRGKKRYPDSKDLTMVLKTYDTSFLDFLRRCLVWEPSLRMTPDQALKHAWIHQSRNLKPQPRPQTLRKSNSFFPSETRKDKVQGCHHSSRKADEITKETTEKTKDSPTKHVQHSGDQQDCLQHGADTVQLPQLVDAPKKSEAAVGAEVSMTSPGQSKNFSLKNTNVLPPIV

off-target kinases (Homo sapiens, UniProt P30291), sequence (P30291 whole entry): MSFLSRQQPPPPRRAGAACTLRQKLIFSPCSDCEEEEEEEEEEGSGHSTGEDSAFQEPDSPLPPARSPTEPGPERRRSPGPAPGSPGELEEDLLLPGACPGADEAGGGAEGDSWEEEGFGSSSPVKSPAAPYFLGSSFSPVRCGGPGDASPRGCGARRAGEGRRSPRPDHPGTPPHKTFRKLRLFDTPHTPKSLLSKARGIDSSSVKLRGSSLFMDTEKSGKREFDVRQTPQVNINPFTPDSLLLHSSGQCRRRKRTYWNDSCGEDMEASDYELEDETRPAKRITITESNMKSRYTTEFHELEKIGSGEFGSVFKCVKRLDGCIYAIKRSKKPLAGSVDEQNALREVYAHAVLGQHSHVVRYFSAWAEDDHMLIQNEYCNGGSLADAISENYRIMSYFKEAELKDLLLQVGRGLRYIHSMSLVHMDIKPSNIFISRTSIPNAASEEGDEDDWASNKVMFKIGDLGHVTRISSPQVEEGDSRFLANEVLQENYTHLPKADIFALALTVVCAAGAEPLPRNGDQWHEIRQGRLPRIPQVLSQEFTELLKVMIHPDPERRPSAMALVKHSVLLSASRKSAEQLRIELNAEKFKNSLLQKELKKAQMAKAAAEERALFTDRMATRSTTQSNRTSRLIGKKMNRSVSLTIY

Compound `N#Cc1cc(-c2ncnc(Nc3ccc(N4CCN(C5COC5)CC4)cc3)n2)ccc1OC1CCOCC1` [Compound 1, 5-(4-((4-(4-(oxetan-3-yl)piperazin-1-yl)phenyl)amino)-1,3,5-triazin-2-yl)-2-((tetrahydro-2H-pyran-4-yl)oxy)benzonitrile] has an inhibition (off-target kinases [1]; read-out: % Inhibition 1) of 28%, an inhibition (off-target kinases [1]; read-out: % Inhibition 2) of 36% and an inhibition (off-target kinases [1]; read-out: % Inhibition Avg) of 32%. It also gave an inhibition (off-target kinases [2]; read-out: % Inhibition 1) of 91%, an inhibition (off-target kinases [2]; read-out: % Inhibition 2) of 92% and an inhibition (off-target kinases [2]; read-out: % Inhibition Avg) of 92%. For the same compound, the inhibition (off-target kinases [3]; read-out: % Inhibition 1) was -2%, the inhibition (off-target kinases [3]; read-out: % Inhibition 2) was 0% and the inhibition (off-target kinases [3]; read-out: % Inhibition Avg) was -1%.
